Test results as given in patent US20230000773A1, “NOVEL HEADGROUP LIPID COMPOUNDS AND COMPOSITIONS FOR INTRACELLULAR DELIVERY OF THERAPEUTIC AGENTS” (ModernaTX, Inc., priority 2019, published 2023).
Where a name gives a salt, the structure may show the parent alone.

Key:
[1] = Heparin-sepharose binding of nanoparticles
[2] = Surface hydrophobicity by Generalized Polarization by Laurdan (GPL); type: physicochemical; conditions: normalized Generalized Polarization by Laurdan; higher N-GP = less polar surface
From the text: Nanoparticle compositions including a therapeutic and/or prophylactic can be optimized according to the selection of a compound according to Formula (I), (I-1), (A), (A-1), (A-1a), or (A-1b), the selection of additional lipids, the amount of each lipid in the lipid component, and the wt:wt ratio of the lipid component to the therapeutic and/or prophylactic. Nanoparticle compositions including DSPC as a phospholipid, cholesterol as a structural lipid, PEG 2 as a PEG lipid, and a compound according to Formula (I), (I-1), (A), (A-1), (A-1a), or (A-1b) were prepared. The ratios of the lipids were 50:10:38:2 mol % for the lipid according to Formula (I), (I-1), (A), (A-1), (A-1a), or (A-1b):DSPC:cholesterol:PEG 2.
Laurdan, a fluorescent aminonaphthalene ketone lipid, was post-inserted into the nanoparticle surface and the fluorescence spectrum of Laurdan was collected to determine the normalized Generalized Polarization (N-GP). Higher N-GP indicates a less polar surface.

hEPO mRNA = experiment: hEPO expression in CD1-mice after intravenous administration of nanoparticles; type: in vivo; conditions: 6 h after intravenous administration, mRNA dose 0.5 mg/kg, N:P 3.4, compound:DSPC:cholesterol:PEG 2 50:10:38:2
Experimental: The expression of hEPO mRNA in CD1-mice was measured 6 h after intravenous administration of nanoparticles comprising a compound of the disclosure, DSPC, cholesterol, and PEG 2 in a ratio of 50:10:38:2. […] Each composition was dosed to 8 animals at an mRNA dose of 0.5 mg/kg.

[3] = Apparent LNP pKa by 2-(p-toluidino)-6-napthalene sulfonic acid (TNS) assay; type: physicochemical; conditions: pH at half of maximum fluorescence

| Structure (SMILES) | Relative % Area Bound by LNP [1] [%] | Average N-GP [2] | LogIC50 (pKa) [3] | Avg. [hEPO] mIU/mL (hEPO mRNA) [mIU/mL] |
| --- | --- | --- | --- | --- |
| CCCCCCCCC(CC)OC(=O)CCCCCCCN(CCCCCCCC(=O)OC(CCCCCCCC)CCCCCCCC)CCCNC1=NS(=O)(=O)CCN1 (centres unmarked) [Compound 77, Heptadecan-9-yl 8-((3-((1,1-dioxido-5,6-dihydro-4H-1,2,4-thiadiazin-3-yl)amino)propyl)(8-oxo-8-(undecan-3-yloxy)octyl)amino)octanoate] | 0 | 0.824 | 6.80 | 7.75E+04 |
| CCCCCCCCC(CC)OC(=O)CCCCCCCN(CCCCCCCC(=O)OC(CCCCCCCC)CCCCCCCC)CCCNS(=O)(=O)c1ncccn1 (centres unmarked) [Compound 73, Heptadecan-9-yl 8-((8-oxo-8-(undecan-3-yloxy)octyl)(3-(pyrimidine-2-sulfonamido)propyl)amino)octanoate] | 0 | 0.747 | 6.61 | 4.64E+05 |
| CCCCCCCCC(CC)OC(=O)CCCCCCCN(CCCCCCCC(=O)OC(CCCCCCCC)CCCCCCCC)CCCNc1nnc(N)[nH]1 (centres unmarked) [Compound 11, Heptadecan-9-yl 8-((3-((5-amino-4H-1,2,4-triazol-3-yl)amino)propyl)(8-oxo-8-(undecan-3-yloxy)octyl)amino)octanoate] | – | – | 6.88 | 1.69E+04 |
| CCCCCCCCC(CC)OC(=O)CCCCCCCN(CCCCCCCC(=O)OC(CCCCCCCC)CCCCCCCC)CCCNC1=C(C#N)C(=O)OC1 (centres unmarked) [Compound 81, Heptadecan-9-yl 8-((3-((4-cyano-5-oxo-2,5-dihydrofuran-3-yl)amino)propyl)(8-oxo-8-(undecan-3-yloxy)octyl)amino)octanoate Trifluoroacetate Salt] | 0 | 0.752 | 6.48 | 4.96E+05 |
| CCCCCCCCC(CC)OC(=O)CCCCCCCN(CCCCCCCC(=O)OC(CCCCCCCC)CCCCCCCC)CCCNC1=NC(=O)NC1 (centres unmarked) [Compound 79, Heptadecan-9-yl 8-((3-((2-oxo-2,5-dihydro-1H-imidazol-4-yl)amino)propyl)(8-oxo-8-(undecan-3-yloxy)octyl)amino)octanoate] | 0 | 0.683 | 6.23 | 4.04E+04 |
| CCCCCCCCC(CC)OC(=O)CCCCCCCN(CCCCCCCC(=O)OC(CCCCCCCC)CCCCCCCC)CCCN/C(=N/O)c1nonc1N (racemic) [Compound 55/56, Heptadecan-9-yl (E/Z)-8-((3-(4-amino-N′-hydroxy-1,2,5-oxadiazole-3-carboximidamido)propyl)(8-oxo-8-(undecan-3-yloxy)octyl)amino)octanoate] | 0 | – | 5.61 | 1.37E+05 |

Now from value to compound, other results behind:

| Relative % Area Bound by LNP [1] [%] | Average N-GP [2] | LogIC50 (pKa) [3] | Structure (SMILES) | Avg. [hEPO] mIU/mL (hEPO mRNA) [mIU/mL] |
| --- | --- | --- | --- | --- |
| 0 | 0.737 | 6.59 | CCCCCCCCC(CC)OC(=O)CCCCCCCN(CCCCCCCC(=O)OC(CCCCCCCC)CCCCCCCC)CCCN/C=N/S(C)(=O)=O (centres unmarked) [Compound 86, Heptadecan-9-yl (E)-8-((3-(N′-(methylsulfonyl)formimidamido)propyl)(8-oxo-8-(undecan-3-yloxy)octyl)amino)octanoate] | – |
| 31.61 | 0.683 | 6.92 | CCCCCCCCC(CC)OC(=O)CCCCCCCN(CCCCCCCC(=O)OC(CCCCCCCC)CCCCCCCC)CCCNC(=O)CS(=O)(=O)NC (centres unmarked) [Compound 76, Heptadecan-9-yl 8-((3-(2-(N-methylsulfamoyl)acetamido)propyl)(8-oxo-8-(undecan-3-yloxy)octyl)amino)octanoate] | 1.50E+05 |
| 6.14 | 0.938 | 6.42 | CCCCCCCCC(CC)OC(=O)CCCCCCCN(CCCCCCCC(=O)OC(CCCCCCCC)CCCCCCCC)CCCNS(=O)(=O)Cc1ccccc1 (centres unmarked) [Compound 74, Heptadecan-9-yl 8-((8-oxo-8-(undecan-3-yloxy)octyl)(3-((phenylmethyl)sulfonamido)propyl)amino)octanoate] | 1.21E+05 |
